Data reported in article PMC10583863 (European journal of medicinal chemistry, 2022).

Columns and labels:
Type in all cases: cell-based, Mycobacterium tuberculosis
[1] = test system: 53.3 (Rv2466c, W28S)
[2] = test system: 53.8 (Rv0579, L240V)
[3] = test system: NTB1 (dprE1, G387S)
[4] = test system: DR1 (mmpl3, V681I)
[5] = test system: 88.1 (coaA, Q207R)
[6] = test system: 88.7 (pyrG, V186G)

Measured: MIC90

NNC(=O)c1ccncc1 [INH, Isoniazide]
0.025 µg/mL: all assays above
